Measurements taken from patent publication EP1996603B1, “LIPID A ANTAGONISTS WITH ANTI-SEPTIC SHOCK, ANTI-INFLAMMATORY, ANTI-ISCHEMIA AND ANALGESIC ACTIVITY” (Università Degli Studi Di Milano - Bicocca, priority 2006, dated 2007).

Key:
Chemical stability = assay type: physicochemical; details: N,O acetal group at C6 in Ia
Excerpt: Reagents and conditions: a) ADMA, CSA, DMF, 94%; b) C14H29Br, NaH, DMF, 74%; c) LiAlH4, AlCl3, CH2Cl2/Et2O, 86%; d) Dess- Martin periodinane, CH2Cl2; e) cyclopentylamine, NaBH3CN, AcOH, CH2Cl2, MeOH, 75% over two steps; f) TFA, CH2Cl2, 80%;g) CH3I, Na2CO3, DMF, 94%; h) O-methylhydroxylamine hydrochloride, pyridine, 65% from 6, i) NaBH3CN, glacial AcOH, 92%; l) TFA, CH2Cl2, 90%, m) DHF, PPTS, CH2Cl2, 65%; n) bromocyclopentane, DIPEA.

BMΦ, BMDC and D1 cells = assay: Lipid A-induced TNFα production in macrophages and dendritic cells (ELISA); assay type: cell-based, Mouse; details: for direct inflammatory function (stimulating cytokines production): cells treated with compound alone, without lipid A
Experimental: BMΦ and DC were derived from bone marrow cells and divided in two separate cultures. For DC preparation bone marrow cells were cultured in complete IMDM supplemented with 10% supernatant of GM-CSF-transduced B16 tumor cells [R. Soiffer, T. Lynch, M. Mihm, K. Jung, C. Rhuda, J. C. Schmollinger, F. S. Hodi, L. Liebster, P. Lam, S. Mentzer, S. Singer, K. K. Tanabe, A. B. Cosimi, R. Duda, A. Sober, A. Bhan, J. Daley, D. Neuberg, G. Parry, J. Rokovich, L. Richards, J. Drayer, A. Berns, S. Clift, L. K. Cohen, R. C. Mulligan, G. Dranoff, Proc. Natl. Acad. Sci. U S A. 1998, 95(22), 13141-13146]. Fresh medium was added every 2 d. After 7-10 d of culture, cells were analyzed for CD11c expression and used in assays when 90% were CD11c positive. For BMΦ preparation bone marrow cells were cultured in complete IMDM supplemented with 10% supernatant of M-CSF-transduced NIH3T3 cells. Also in this case, fresh medium was added every 2 d. After 7-10 d of culture, cells were analyzed for Mac1 expression and used in assays when at least 90% were Mac1 positive. D1 cells were cultured in complete IMDM supplemented with 10% supernatant of GM-CSF-transduced B16 tumor cells.
D1 cells, BMDC and MΦ were plated in 48 well plates at a concentration of 200000 cells/well in 200µL of medium. One or two hours after plating they were treated with different amounts of compounds Ic and Id for 30 min and then stimulated with Lipid A from Escherichia coli (F583, Rd mutant Sigma, 0.5µM) for 18 h.
Given the pivotal role of early-activated DC and MΦ in directing inflammatory reactions, compounds Ia, Ic and Id were tested for their ability to antagonize the stimulatory activity of lipid A on bone marrow derived macrophages (BMΦ) and DC (BMDC) by interfering with their capacity to induce TNFα production. As source of DC, D1 cells, a long term growth factor (GM-CSF)-dependent DC line [C. Winzler et al. J. Exp. Med. 1997, 185, 317-327] were also used. BMΦ, BMDC and D1 cells were stimulated with lipid A (0.5 µM) after a pre-exposure to compounds Ia, Ic and Id and the amount of TNFα released in the supernatant was measured by ELISA.

chemical stability (Chemical stability) | Compound | direct inflammatory function (stimulating cytokines production) (BMΦ, BMDC and D1 cells) | relative potency as inhibitor of lipid A (BMΦ, BMDC and D1 cells; comparison between compounds Ia, Ic and Id) | TNFα production (BMΦ, BMDC and D1 cells; stimulation with lipid A (0.5 µM) after pre-exposure to compound, TNFα released in the supernatant measured by ELISA, BMΦ, BMDC and D1 cells)
chemically unstable | CCCCCCCCCCCCCCO[C@H]1[C@@H](OC)O[C@H](CN(OC)C2CCCO2)[C@@H](O)[C@@H]1OCCCCCCCCCCCCCC (stereo partly drawn) [Compound Ia, methyl 6-deoxy-6-[N-(1'-tetrahydrofuranyl)-N'-methoxyamino)-2,3-di-O-tetradecyl-α-D-glucopyranoside] | did not show any direct inflammatory function | – | –
more stable than compound (Ia) | CCCCCCCCCCCCCCO[C@H]1[C@@H](OC)O[C@H](CN(OC)C2CCCC2)[C@@H](O)[C@@H]1OCCCCCCCCCCCCCC [Ib, methyl 6-deoxy-6-[N-(cyclopentyl)-N'-methoxyamino)-2,3-di-O-tetradecyl-α-D-glucopyranoside] | – | – | –
– | CCCCCCCCCCCCCCO[C@H]1[C@@H](OC)O[C@H](CNC2CCCC2)[C@@H](O)[C@@H]1OCCCCCCCCCCCCCC [Ic, methyl 6-deoxy-6-cyclopentylamino-2,3-di-O-tetradecyl-α-D-glucopyranoside] | did not show any direct inflammatory function | a better inhibitor than Ia | interfered with lipid A's action in a dose-dependent manner
